Assay results as given in paper PMC3542062, “A phenyl-thiadiazolylidene-amine derivative ejects zinc from retroviral nucleocapsid zinc fingers and inactivates HIV virions” (Retrovirology, 2012).

Legend:
NL4.3/AMD3100R = test: microbe, parasite or virus in culture; type: cell-based, HIV-1; settings: NL4.3/AMD3100R; EC50 for NL4.3 wild-type as 1
[1] = tested on: human T-lymphocyte (CEM) cells; test: Cytostatic activity, CEM cell proliferation; type: cell-based
HIV-2 ROD [2] = test: MT-4/MTT-assay, protection against virus-induced cytopathic effect; type: cell-based; settings: MT-4 cells, MTT, 5 days after infection
MT-4 cells = test: Cytotoxicity in mock-infected MT-4 cells (MTT); type: cell-based
HIV-1 IIIB [3] = test: Anti-HIV activity in CEM cells (cytopathogenicity); type: cell-based
SIV Mac251 = test: MT-4/MTT-assay, protection against virus-induced cytopathic effect; type: cell-based; settings: MT-4 cells, MTT, 5 days after infection
HIV-2 ROD [4] = test: Anti-HIV activity in CEM cells (cytopathogenicity); type: cell-based
HIV-1 IIIB [5] = test: MT-4/MTT-assay, protection against virus-induced cytopathic effect; type: cell-based; settings: MT-4 cells, MTT, 5 days after infection
[6] = tested on: HIV-1 IIIB chronically-infected HuT-78 cells; test: Gag processing in virions from HIV-1 IIIB chronically-infected HuT-78 cells (western blot); type: cell-based; settings: HuT-78/IIIB cells treated 43 hours; WDO-217 50, 25 μM; ritonavir 2.7 μM; SRR-SB3 75, 15 μM
Experimental: Recently, it has been shown that this new mechanism involves acetylation of the NCp7 region of Gag, thereby blocking Gag processing.
HIV-1 IIIB virions from persistently infected HuT-78 cells treated with different concentrations of compound were analysed by gel electrophoresis and immunoblotted with antibody against capsid.
Chronically-infected HIV-1 IIIB HuT-78 cells (HuT-78/IIIB) were washed four times with PBS to remove all free virions before treatment and 2 × 10^5 cells were resuspended in 1 ml compound-containing medium for 43 hours at 37°C. Then, virions were prepared from clarified supernatants (10 min at 300 g) by centrifugation at 36670 g for 2 hours at 4°C. Protein from lysed virions were separated by SDS-PAGE on a NuPage® Novex 4-12% Bis-Tris gel (Invitrogen) and transferred on a hydrophobic polyvinylidene difluoride (PVDF) membrane (Amersham Hybond™-P). The blot was blocked overnight at 4°C by 5% dry milk powder in Western blot wash solution (WBWS; PBS + 0.5% Tween 20), washed three times for 5 minutes with WBWS and incubated with a mouse anti-HIV-1 p24 antibody (1:5000) from Abcam. The blot was then washed three times for 5 minutes with WBWS and incubated for 1 h with a goat anti-mouse IgG-HRP secondary antibody (1:2500) from Santa Cruz Biotechnology. […]

HIV-2 ROD [7] = test: Virucidal assay: virus pre-incubated with compound, diluted, titrated on MT-4 cells; settings: virus incubated 1 h 37°C with 0.5%; no drug 5.4 × 10^6
HIV-1 virus particles [8] = test: Virion-associated genomic RNA of pre-treated virus (RT-qPCR, Northern blot); settings: compound-cleared HIV-1 virus stock, RT-qPCR or Northern blot
HIV-1 virus particles [9] = test: Virion-associated p24 of pre-treated, compound-cleared virus (ELISA); settings: compound-cleared HIV-1 virus stock
HIV-1 IIIB [10] = test: Virucidal assay: virus pre-incubated with compound, diluted, titrated on MT-4 cells; settings: virus incubated 1 h 37°C with 0.5%; no drug 1 × 10^6

## c1cc(CN2CCCNCCNCCCNCC2)ccc1CN1CCCNCCNCCCNCC1 [AMD3100, reference compound]
NL4.3/AMD3100R
  Fold resistance of mutant strain towards the respective inhibitor: (>100)

## Cc1cn([C@H]2C[C@H](N=[N+]=[N-])[C@@H](CO)O2)c(=O)[nH]c1=O [AZT, reference compound]
[1]
  CC50: > 125000 nM
HIV-2 ROD [2]
  EC50: 5 ± 0.8 nM
MT-4 cells
  CC50: > 35000 nM
HIV-1 IIIB [3]
  EC50: 58 ± 30 nM
SIV Mac251
  EC50: 16 ± 7 nM
HIV-2 ROD [4]
  EC50: 55 ± 20 nM
HIV-1 IIIB [5]
  EC50: 7 ± 1 nM

## CC(C)c1nc(CN(C)C(=O)N[C@H](C(=O)N[C@@H](Cc2ccccc2)C[C@H](O)[C@H](Cc2ccccc2)NC(=O)OCc2cncs2)C(C)C)cs1 [ritonavir, reference compound]
[6]
  accumulation of unprocessed Gag polyprotein in progeny virus: did effectively increase

## Triton X-100 [reference compound]
HIV-2 ROD [7]
  CCID50/ml HIV-2 ROD: 0 CCID50/ml
HIV-1 virus particles [8]
  viral genomic RNA content after treatment: no p24 core protein nor viral genomic RNA could be detected
HIV-1 virus particles [9]
  virus-associated p24 core protein after treatment: no p24 core protein nor viral genomic RNA could be detected
HIV-1 IIIB [10]
  CCID50/ml HIV-1 IIIB: 0 CCID50/ml
